Measured values published in patent US8796244B2, “Imidazopyridine derivatives as inhibitors of receptor tyrosine kinases” (Astex Therapeutics Ltd, priority 2008, dated 2014).
Structures can show the parent of a compound that is named as a salt. Where two headings read alike, the source gives them in different places.

Assays:
FGFR3 = FGFR3 (Homo sapiens (Human), UniProt P22607); assay: FGFR3 in vitro kinase inhibitory activity assay (TRF)
Ba/F3-TEL-FGFR3 cells = assay: Ba/F3-TEL-FGFR3 cell proliferation assay (Alamar Blue); format: cell-based
[1] = system: parental wild-type Ba/F3 cells; assay: Ba/F3 (WT) cell proliferation assay (Alamar Blue); format: cell-based; conditions: Mus musculus
[2] = system: LP-1 cell line (FGF-1/Heparin induced pERK); assay: Cell-based pERK ELISA, LP-1 cells; conditions: Homo sapiens, LP-1, read-out: LP-1 pERK ELISA (μM)
VEGFR2 = VEGFR2 (Homo sapiens (Human), UniProt P35968); assay: VEGFR2 in vitro kinase inhibitory activity assay (TRF, Flt3 substrate); format: biochemical
VEGFR2, sequence (P35968 20-1356): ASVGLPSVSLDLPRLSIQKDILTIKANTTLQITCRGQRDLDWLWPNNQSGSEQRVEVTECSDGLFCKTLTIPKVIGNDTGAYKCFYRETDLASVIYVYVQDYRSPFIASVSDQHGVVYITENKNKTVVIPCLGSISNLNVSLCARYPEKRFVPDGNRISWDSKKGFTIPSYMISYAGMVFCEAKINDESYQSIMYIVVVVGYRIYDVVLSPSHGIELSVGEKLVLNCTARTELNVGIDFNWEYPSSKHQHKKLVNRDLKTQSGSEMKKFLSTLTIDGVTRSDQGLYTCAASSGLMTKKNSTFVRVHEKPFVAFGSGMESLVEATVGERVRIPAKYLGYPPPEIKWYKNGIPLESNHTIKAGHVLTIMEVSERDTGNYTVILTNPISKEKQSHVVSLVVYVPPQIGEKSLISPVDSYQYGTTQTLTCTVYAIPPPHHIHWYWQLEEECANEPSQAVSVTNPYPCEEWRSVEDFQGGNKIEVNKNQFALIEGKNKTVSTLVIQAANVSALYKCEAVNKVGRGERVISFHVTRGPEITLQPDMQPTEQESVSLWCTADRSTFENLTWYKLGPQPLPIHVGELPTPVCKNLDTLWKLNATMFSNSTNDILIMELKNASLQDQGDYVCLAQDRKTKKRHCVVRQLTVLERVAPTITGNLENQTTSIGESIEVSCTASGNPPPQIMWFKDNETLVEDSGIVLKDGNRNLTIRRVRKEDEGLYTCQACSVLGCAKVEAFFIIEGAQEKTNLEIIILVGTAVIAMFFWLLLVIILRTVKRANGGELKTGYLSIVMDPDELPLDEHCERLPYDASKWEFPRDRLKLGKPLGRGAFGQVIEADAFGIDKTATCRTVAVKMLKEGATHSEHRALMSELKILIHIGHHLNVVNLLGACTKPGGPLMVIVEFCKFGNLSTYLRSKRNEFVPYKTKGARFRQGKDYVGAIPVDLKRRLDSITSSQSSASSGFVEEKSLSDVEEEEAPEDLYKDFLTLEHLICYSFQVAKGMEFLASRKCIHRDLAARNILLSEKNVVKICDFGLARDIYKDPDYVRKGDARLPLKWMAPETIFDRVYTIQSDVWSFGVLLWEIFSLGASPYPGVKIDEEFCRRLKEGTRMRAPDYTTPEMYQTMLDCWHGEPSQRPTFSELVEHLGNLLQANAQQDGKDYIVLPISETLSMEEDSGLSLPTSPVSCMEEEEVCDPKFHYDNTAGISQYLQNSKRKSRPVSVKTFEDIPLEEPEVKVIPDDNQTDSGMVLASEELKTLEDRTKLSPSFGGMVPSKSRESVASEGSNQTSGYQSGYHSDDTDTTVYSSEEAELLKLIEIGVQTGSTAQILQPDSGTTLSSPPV

[3] = 72 hours, Alamar Blue, read-out: BaF3-TEL-FGFR3 prolif
[4] = BaF3, 72 hours, Alamar Blue, read-out: BaF3 WT prolif
[5] = BaF3, read-out: BaF3 WT prolif, % inhibition
[6] = BaF3, at 10 μM, read-out: BaF3 WT prolif, % inhibition
[7] = 72 h, read-out: BaF3-TEL-FGFR3 prolif (μM)
[8] = BaF3, 72 h, read-out: BaF3 WT prolif (μM)

FGFR3, sequence (P22607 23-806): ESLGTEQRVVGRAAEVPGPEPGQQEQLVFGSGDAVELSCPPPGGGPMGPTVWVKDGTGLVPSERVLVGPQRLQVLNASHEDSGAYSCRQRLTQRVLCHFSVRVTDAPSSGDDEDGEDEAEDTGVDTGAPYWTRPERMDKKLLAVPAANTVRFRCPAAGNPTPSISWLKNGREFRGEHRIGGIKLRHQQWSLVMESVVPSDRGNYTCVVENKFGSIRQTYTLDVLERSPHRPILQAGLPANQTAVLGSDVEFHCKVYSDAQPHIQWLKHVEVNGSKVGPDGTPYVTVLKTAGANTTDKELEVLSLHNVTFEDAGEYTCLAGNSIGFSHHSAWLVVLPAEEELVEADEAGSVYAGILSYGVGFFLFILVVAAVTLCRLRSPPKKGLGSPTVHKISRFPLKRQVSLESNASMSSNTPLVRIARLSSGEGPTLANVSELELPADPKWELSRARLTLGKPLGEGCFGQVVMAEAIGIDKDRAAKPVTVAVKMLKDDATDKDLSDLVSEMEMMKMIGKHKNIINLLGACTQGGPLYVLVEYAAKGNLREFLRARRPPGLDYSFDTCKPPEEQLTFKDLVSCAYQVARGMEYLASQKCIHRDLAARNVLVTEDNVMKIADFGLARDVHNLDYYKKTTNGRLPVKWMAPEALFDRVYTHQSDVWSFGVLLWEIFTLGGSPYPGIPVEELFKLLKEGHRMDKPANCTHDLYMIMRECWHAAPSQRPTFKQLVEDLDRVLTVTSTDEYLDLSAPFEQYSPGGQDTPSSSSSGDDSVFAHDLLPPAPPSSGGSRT

SMILES: CNc1cc(-c2ccn3c(-c4cccc(NC(=O)NCC(F)(F)F)c4)cnc3c2)ncn1 [Example 195]
- inhibition at 0.00097 µM (FGFR3; 3 h, read-out: FGFR3 % I): 66%
- IC50 (Ba/F3-TEL-FGFR3 cells; [3]): 0.076 µM
- IC50 [1, 4]: 5 µM

SMILES: CN(C)Cc1cnc(-c2ccn3c(-c4cccc(NC(=O)NCC(F)(F)F)c4)cnc3c2)nc1N [Compound 260]
- melting point: 130 °C
- inhibition at 1 µM [1, 5]: 0%

SMILES: CC(C)N1CCC(n2cc(-c3ccn4c(-c5cccc(NC(=O)NCC(F)(F)F)c5)cnc4c3)cn2)CC1 [Example 50, 1-(3-{7-[1-(1-Isopropylpiperidin-4-yl)-1H-pyrazol-4-yl]imidazo[1,2-a]pyridin-3-yl}-phenyl)-3-(2,2,2-trifluoroethyl)urea hydrochloride]
- IC50 [2]: 0.021 µM
- inhibition at 0.0003 µM (FGFR3; 3 h, read-out: FGFR3 % I): 39%
- IC50 (Ba/F3-TEL-FGFR3 cells; [3]): 0.029 µM
- IC50 [1, 4]: 0.71 µM

SMILES: Nc1nc(-c2ccn3c(-c4cccc(NC(=O)NCC(F)(F)F)c4)cnc3c2)ncc1C(=O)O (as salt: HCl) (hydrate or solvate) [Compound 277]
- melting point: > 260 °C

SMILES: N#Cc1ccnc(-c2ccn3c(-c4cccc(NC(=O)NCC(F)(F)F)c4)cnc3c2)n1 [Compound 253]
- melting point: 210 °C
- IC50 [1, 4]: 1.8 µM

SMILES: CCCCCOC(=O)Nc1nc(-c2ccn3c(-c4cccc(NC(=O)NCC(F)(F)F)c4)cnc3c2)ncc1F [Compound 331]
- inhibition at 0.03 µM (FGFR3; 3 h, read-out: FGFR3 % I): 42%
- IC50 (Ba/F3-TEL-FGFR3 cells; [3]): 1.6 µM
- inhibition at 10 µM [1, 6]: 60%
- inhibition at 3 µM (VEGFR2; 1 h, read-out: VEGFR2 % I): 43%

SMILES: CS(=O)(=O)N1CCC(n2cc(-c3ccn4c(-c5cccc(NC(=O)NCC(F)(F)F)c5)cnc4c3)cn2)CC1 [Example 74, 1-(3-{7-[1-(1-Methanesulfonyl-piperidin-4-yl)-1H-pyrazol-4-yl]-imidazo [1,2-a]pyridin-3-yl}-phenyl)-3-(2,2,2-trifluoro-ethyl)-urea]
- IC50 [2]: 0.018 µM
- inhibition at 0.0003 µM (FGFR3; 3 h, read-out: FGFR3 % I): 51.5%
- IC50 (Ba/F3-TEL-FGFR3 cells; [3]): 0.096 µM
- IC50 [1, 4]: 0.82 µM

SMILES: Cc1nnc(-c2ccn3c(-c4cccc(NC(=O)NC5CC5)c4)cnc3c2)o1 [Compound 157B]
- melting point: 229.6 °C

SMILES: O=C(Nc1cccc(-c2cnc3cc(-c4nncs4)ccn23)c1)NC1CC1 [Compound 158B]
- melting point: 205 °C

SMILES: Cc1ccc(NC(=O)NCC(F)(F)F)cc1-c1cnc2cc(-c3ncc(F)c(N)n3)ccn12 [Compound 283]
- IC50 (FGFR3; read-out: FGFR3 IC50, […]): > 1000 nM
- IC50 (VEGFR2): > 10000 nM

SMILES: CC(=O)N1CCC(n2cc(-c3ccn4c(-c5cccc(NC(=O)NCC(F)(F)F)c5)cnc4c3)cn2)CC1 [Example 63, 1-(3-{7-[1-(1-Acetyl-piperidin-4-yl)-1H-pyrazol-4-yl]-imidazo[1,2-a]pyridin-3-yl}-phenyl)-3-(2,2,2-trifluoro-ethyl)-urea formate]
- IC50 [2]: 0.05 µM
- inhibition at 0.0003 µM (FGFR3; 3 h, read-out: FGFR3 % I): 50.5%
- IC50 (Ba/F3-TEL-FGFR3 cells; [7]): 0.092 µM
- IC50 [1, 8]: 1.4 µM

SMILES: CC(C)(O)c1ccc(-c2ccn3c(-c4cccc(NC(=O)NCC(F)(F)F)c4)cnc3c2)cc1 [Compound 321]
- inhibition at 0.0003 µM (FGFR3; 3 h, read-out: FGFR3 % I): 36%
- IC50 (Ba/F3-TEL-FGFR3 cells; [3]): 0.021 µM
- IC50 [1, 4]: 0.46 µM

SMILES: COC(=O)c1cc(NC(=O)NCC(F)(F)F)cc(-c2cnc3cc(-c4ccnc(C(F)(F)F)n4)ccn23)c1 [Compound 307]
- inhibition at 0.03 µM (FGFR3; 3 h, read-out: FGFR3 % I): 39%
- inhibition at 10 µM (Ba/F3-TEL-FGFR3 cells; at 10 μM, read-out: BaF3-TEL-FGFR3 prolif, % inhibition): 25%
- inhibition at 10 µM [1, 6]: 0%
- inhibition at 1 µM (VEGFR2; 1 h, at 1 μM, read-out: VEGFR2 % I): 58%

SMILES: O=C(NCC(F)(F)F)Nc1cccc(-c2cnc3cc(-c4nccc(N5CCNCC5)n4)ccn23)c1 (as salt: HCl) (hydrate or solvate) [Compound 269]
- melting point: 200 °C

SMILES: CCNC(=O)Nc1cccc(-c2cnc3cc(-c4ncc(OC)cn4)ccn23)c1 [Example 230]
- inhibition at 0.003 µM (FGFR3; 3 h, read-out: FGFR3 % I): 49%
- IC50 (Ba/F3-TEL-FGFR3 cells; [3]): 0.09 µM
- IC50 [1, 4]: 0.16 µM

SMILES: COc1cc(NC(=O)NCC(F)(F)F)cc(-c2cnc3cc(-c4ncccn4)ccn23)c1 [Compound 304]
- inhibition at 0.1 µM (FGFR3; 3 h, read-out: FGFR3 % I): 55%
- inhibition at 3 µM (VEGFR2; 1 h, read-out: VEGFR2 % I): 59%

SMILES: NC1CCN(c2ccc(-c3ccn4c(-c5cccc(NC(=O)NCC(F)(F)F)c5)cnc4c3)cn2)CC1 [Compound 330]
- inhibition at 0.00097 µM (FGFR3; 3 h, read-out: FGFR3 % I): 66%
- IC50 (Ba/F3-TEL-FGFR3 cells; [3]): 0.027 µM
- IC50 [1, 4]: 0.56 µM

SMILES: N#CCc1cc(NC(=O)NCC(F)(F)F)cc(-c2cnc3cc(-c4ccnc(C(F)(F)F)n4)ccn23)c1 [Compound 310]
- inhibition at 0.3 µM (FGFR3; 3 h, read-out: FGFR3 % I): 36%
- IC50 (VEGFR2): > 3000 nM

SMILES: CNC(=O)c1ccc(-c2ccn3c(-c4cccc(NC(=O)NCC(F)(F)F)c4)cnc3c2)nc1 [Example 224]
- inhibition at 0.001 µM (FGFR3; 3 h, read-out: FGFR3 % I): 61%
- IC50 (Ba/F3-TEL-FGFR3 cells; [3]): 0.033 µM
- inhibition at 3 µM [1, 5]: 16%

SMILES: O=C(NCC(F)(F)F)Nc1cccc(-c2cnc3cc(-c4ccc(N5CCNCC5)nn4)ccn23)c1 [Example 23, 1-{3-[7-(6-Piperazin-1-ylpyridazin-3-yl)-imidazo[1,2-a]pyridin-3-yl]phenyl}-3-(2,2,2-trifluoroethyl)urea trifluoroacetate]
- IC50 [2]: 0.63 µM
- inhibition at 0.001 µM (FGFR3; 3 h, read-out: FGFR3 % I): 58%
- IC50 (Ba/F3-TEL-FGFR3 cells; [3]): 0.42 µM
- inhibition at 10 µM [1, 6]: 0%

SMILES: O=C(NCC(F)(F)F)Nc1cccc(-c2cnc3cc(-c4ccc(NC5CCOCC5)nn4)ccn23)c1 [Example 66, 1-(3-{7-[6-(Tetrahydro-pyran-4-ylamino)-pyridazin-3-yl]-imidazo[1,2-a]pyridin-3-yl}-phenyl)-3-(2,2,2-trifluoro-ethyl)-urea bis-hydrochloride]
- IC50 [2]: 0.069 µM
- inhibition at 0.0003 µM (FGFR3; 3 h, read-out: FGFR3 % I): 43%
- IC50 (Ba/F3-TEL-FGFR3 cells; [7]): 0.046 µM
- IC50 [1, 8]: 1.9 µM

SMILES: CCNc1nnc(-c2ccn3c(-c4cccc(NC(=O)NCC(F)(F)F)c4)cnc3c2)s1 [Compound 286]
- inhibition at 0.0003 µM (FGFR3; 3 h, read-out: FGFR3 % I): 57%
- inhibition at 3 µM (Ba/F3-TEL-FGFR3 cells; read-out: BaF3-TEL-FGFR3 prolif, % inhibition): 55%
- inhibition at 10 µM [1, 5]: 0%

SMILES: O=C(NCC(F)(F)F)Nc1cccc(-c2cnc3cc(-c4ccnc(-n5ccnc5)n4)ccn23)c1 [Example 215]
- inhibition at 0.1 µM (FGFR3; 3 h, read-out: FGFR3 % I): 39%
- IC50 (Ba/F3-TEL-FGFR3 cells; [3]): 8.8 µM
- IC50 [1, 4]: 10 µM
- IC50 (VEGFR2): > 10000 nM

SMILES: Nc1nc(-c2ccn3c(-c4cc(NC(=O)NCC(F)(F)F)cc(OC5CCCC5)c4)cnc3c2)ncc1F [Compound 281]
- inhibition at 0.1 µM (FGFR3; 3 h, read-out: FGFR3 % I): 42%
- IC50 [1, 4]: 1.4 µM

SMILES: O=C(NCC(F)(F)F)Nc1cccc(-c2cnc3cc(-c4cnc(C(F)(F)F)nc4)ccn23)c1 [Example 232]
- inhibition at 0.001 µM (FGFR3; 3 h, read-out: FGFR3 % I): 45%
- IC50 (Ba/F3-TEL-FGFR3 cells; [3]): 0.045 µM
- IC50 [1, 4]: 0.6 µM

SMILES: O=C(NCC(F)(F)F)Nc1cccc(-c2cnc3cc(-c4ccc(O)cn4)ccn23)c1 [Example 202]
- inhibition at 0.001 µM (FGFR3; 3 h, read-out: FGFR3 % I): 46%
- IC50 (Ba/F3-TEL-FGFR3 cells; [3]): 0.26 µM
- inhibition at 1 µM [1, 5]: 21%

SMILES: N#Cc1cnc(-c2ccn3c(-c4cccc(NC(=O)NCC(F)(F)F)c4)cnc3c2)nc1N [Compound 165B]
- melting point: 161 °C

SMILES: O=C(NCC(F)(F)F)Nc1cccc(-c2cnc3cc(-c4ccc(C(F)(F)F)nn4)ccn23)c1 [Example 229]
- inhibition at 0.03 µM (FGFR3; 3 h, read-out: FGFR3 % I): 67%
- IC50 (Ba/F3-TEL-FGFR3 cells; [3]): 0.32 µM
- IC50 [1, 4]: 5.5 µM
- inhibition at 0.3 µM (VEGFR2; 1 h, at 0.3 μM, read-out: VEGFR2 % I): 59%

SMILES: COCCNc1nnc(-c2ccn3c(-c4cccc(NC(=O)NCC(F)(F)F)c4)cnc3c2)s1 [Compound 288]
- inhibition at 0.0003 µM (FGFR3; 3 h, read-out: FGFR3 % I): 54%
- IC50 (Ba/F3-TEL-FGFR3 cells; [3]): 0.035 µM
- inhibition at 10 µM [1, 5]: 7.8%

SMILES: Cc1noc(C)c1C#Cc1ccn2c(-c3cccc(NC(=O)NCC(F)(F)F)c3)cnc2c1 [Example 112, 1-{3-[7-(3,5-Dimethyl-isoxazol-4-ylethynyl)-imidazo[1,2-a]pyridin-3-yl]-phenyl}-3-(2,2,2-trifluoro-ethyl)-urea trifluoroacetate]
- inhibition at 0.3 µM (FGFR3; 3 h, read-out: FGFR3 % I): 49%

SMILES: CC(C)(CO)n1cc(-c2ccn3c(-c4cccc(NC(=O)NCC(F)(F)F)c4)cnc3c2)cn1 [Example 10, 1-(3-{7-[1-(2-Hydroxy-1,1-dimethylethyl)-1H-pyrazol-4-yl]-imidazo[1,2-a]pyridin-3-yl}phenyl)-3-(2,2,2-trifluoroethyl)urea]
- IC50 [2]: 0.047 µM
- inhibition at 0.001 µM (FGFR3; 3 h, read-out: FGFR3 % I): 50%
- IC50 (Ba/F3-TEL-FGFR3 cells; [3]): 0.3 µM
- IC50 [1, 4]: 2.3 µM

SMILES: CCNC(=O)Nc1cccc(-c2cnc3cc(-c4nnc(C(F)(F)F)s4)ccn23)c1 [Example 236]
- inhibition at 0.31 µM (FGFR3; 3 h, read-out: FGFR3 % I): 46%

SMILES: CC(C)(C(=O)N1CCC1)n1cc(-c2ccn3c(-c4cccc(NC(=O)NCC(F)(F)F)c4)cnc3c2)cn1 [Example 73, 1-(3-{7-[1-(2-Azetidin-1-yl-1,1-dimethyl-2-oxo-ethyl)-1H-pyrazol-4-yl]-imidazo[1,2-a]pyridin-3-yl}-phenyl)-3-(2,2,2-trifluoro-ethyl)-urea]
- IC50 [2]: 0.12 µM
- inhibition at 0.001 µM (FGFR3; 3 h, read-out: FGFR3 % I): 60%
- IC50 (Ba/F3-TEL-FGFR3 cells; [3]): 0.13 µM
- IC50 [1, 4]: 3.7 µM
